From patent publication US9809574B2, “Isoindoline or isoquinoline compounds, a process for their preparation and pharmaceutical compositions containing them” (LES LABORATOIRES SERVIER, priority 2013, dated 2017)

Key:
[1] = biological target: Bcl-2 protein (histag-Bcl-2, UniProtKB P10415) (Homo sapiens (Human), UniProt P10415); test: Inhibition of Bcl-2 by the fluorescence polarisation technique; format: binding; conditions: fluorescence polarisation test; incubation for 2 hours; read-out: IC50 (nM) Bcl-2 FP
Chain of Bcl-2 protein (P10415 whole entry): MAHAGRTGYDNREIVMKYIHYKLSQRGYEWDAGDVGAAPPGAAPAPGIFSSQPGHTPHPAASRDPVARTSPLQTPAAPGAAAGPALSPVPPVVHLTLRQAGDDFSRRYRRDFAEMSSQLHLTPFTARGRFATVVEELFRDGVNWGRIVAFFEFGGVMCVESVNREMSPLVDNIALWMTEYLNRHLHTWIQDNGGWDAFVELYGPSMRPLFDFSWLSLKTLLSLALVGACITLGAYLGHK
From the text: For partial inhibitors, the percentage fluorescence polarisation inhibition for a given concentration of the test compound is indicated.

[2] = tested on: RS4; 11 leukaemia cell line; test: In vitro cytotoxicity, Microculture Tetrazolium Assay (MTT); format: cell-based; conditions: Homo sapiens, 11 cells exposed for 48 hours
Description: The cytotoxicity studies were carried out on the RS4; 11 leukaemia cell line and on H146 small Cell Lung Carcinoma cell line. The cells are distributed onto microplates and exposed to the test compounds for 48 hours. The cell viability is then quantified by a colorimetric assay, the Microculture Tetrazolium Assay (Cancer Res., 1987, 47, 939-942).

SMILES	IC50 [1] [nM]	IC50 [2] [nM]
CCC(C(=O)N1CCc2cc(-c3cc(C(=O)N(C)c4ccc(O)cc4)c4n3CCCC4)c(C(=O)N3Cc4ccccc4C[C@H]3C)cc2C1)c1ccccc1 (stereo partly drawn) [Example 95, N-(4-Hydroxyphenyl)-N-methyl-3-{7-[(3R)-3-methyl-1,2,3,4-tetrahydroisoquinoline-2-carbonyl]-2-(2-phenylbutanoyl)-1,2,3,4-tetrahydroisoquinolin-6-yl}-5,6,7,8-tetrahydroindolizine-1-carboxamide]	14	115
CCCN(C(=O)c1cc(-c2cc3c(cc2C(=O)N2Cc4ccccc4C[C@H]2CN2CCOCC2)CN(C(=O)Oc2ccccc2)CC3)n(C)c1C)c1ccc(O)cc1 [Example 186, Phenyl 6-{4-[(4-hydroxyphenyl)(propyl)carbamoyl]-1,5-dimethyl-1H-pyrrol-2-yl}-7-[(3S)-3-(morpholin-4-ylmethyl)-1,2,3,4-tetrahydroisoquinoline-2-carbonyl]-1,2,3,4-tetrahydroisoquinoline-2-carboxylate]	2.5	4.5
C[C@@H]1Cc2ccccc2CN1C(=O)c1cc2c(cc1-c1cc(C(=O)N(C)c3ccc(O)cc3)c3n1CCCC3)CN(C(=O)Cc1csc(-c3cnccn3)n1)C2 [Example 31, N-(4-Hydroxyphenyl)-N-methyl-3-{6-[(3R)-3-methyl-1,2,3,4-tetrahydroisoquinoline-2-carbonyl]-2-{2-[2-(pyrazin-2-yl)-1,3-thiazol-4-yl]acetyl}-2,3-dihydro-1H-isoindol-5-yl}-5,6,7,8-tetrahydroindolizine-1-carboxamide]	7.4	113
Cc1c(C(=O)N(C)c2ccc(O)cc2)cc(-c2cc3c(cc2C(=O)N2Cc4ccccc4C[C@H]2CN2CCOCC2)CN(C(=O)Oc2ccc4[nH]ccc4c2)CC3)n1C [Example 577, 1H-Indol-5-yl 6-{4-[(4-hydroxyphenyl)(methyl)carbamoyl]-1,5-dimethyl-1H-pyrrol-2-yl}-7-[(3S)-3-(morpholin-4-ylmethyl)-1,2,3,4-tetrahydroisoquinoline-2-carbonyl]-1,2,3,4-tetrahydroisoquinoline-2-carboxylate]	5.9	4.7
C[C@@H]1Cc2ccccc2CN1C(=O)c1cc2c(cc1-c1cc(C(=O)N(C)c3ccc(O)cc3)c3n1CCCC3)CN(C(=O)N(C)Cc1ccccc1)C2 [Example 85, N-Benzyl-5-{1-[(4-hydroxyphenyl)(methyl)carbamoyl]-5,6,7,8-tetrahydroindolizin-3-yl}-N-methyl-6-[(3R)-3-methyl-1,2,3,4-tetrahydroisoquinoline-2-carbonyl]-2,3-dihydro-1H-isoindole-2-carboxamide]	6.1	58
C[C@@H]1Cc2ccccc2CN1C(=O)c1cc2c(cc1-c1cc(C(=O)N(C)c3ccc(O)cc3)c3n1CCCC3)CN(C(=O)N1CC(c3ccccc3)C1)C2 [Example 83, N-(4-Hydroxyphenyl)-N-methyl-3-{6-[(3R)-3-methyl-1,2,3,4-tetrahydroisoquinoline-2-carbonyl]-2-(3-phenylazetidine-1-carbonyl)-2,3-dihydro-1H-isoindol-5-yl}-5,6,7,8-tetrahydroindolizine-1-carboxamide]	15	122
Cc1c(C(=O)N(C)c2ccccc2)cc(-c2cc3c(cc2C(=O)N2Cc4ccccc4C[C@H]2C)CN(C(=O)Oc2cnc4[nH]ccc4c2)CC3)n1C [Example 636, 1H-Pyrrolo[2,3-b]pyridin-5-yl 6-{1,5-dimethyl-4-[methyl(phenyl)carbamoyl]-1H-pyrrol-2-yl}-7-[(3R)-3-methyl-1,2,3,4-tetrahydroisoquinoline-2-carbonyl]-1,2,3,4-tetrahydroisoquinoline-2-carboxylate]	11	34
Cc1c(C(=O)N(C)c2ccc(O)cc2)cc(-c2cc3c(cc2C(=O)N2Cc4ccccc4C[C@H]2C)CN(C(=O)Oc2ccccc2)C3)n1C [Example 63, Phenyl 5-{4-[(4-hydroxyphenyl)(methyl)carbamoyl]-1,5-dimethyl-1H-pyrrol-2-yl}-6-[(3R)-3-methyl-1,2,3,4-tetrahydroisoquinoline-2-carbonyl]-2,3-dihydro-1H-isoindole-2-carboxylate]	4.4	12
CNC(=O)N1Cc2cc(C(=O)N3Cc4ccccc4C[C@H]3C)c(-c3cc(C(=O)N(C)c4ccc(O)cc4)c(C)n3C)cc2C1 [Example 170, 5-{4-[(4-Hydroxyphenyl)(methyl)carbamoyl]-1,5-dimethyl-1H-pyrrol-2-yl}-N-methyl-6-[(3R)-3-methyl-1,2,3,4-tetrahydroisoquinoline-2-carbonyl]-2,3-dihydro-1H-isoindole-2-carboxamide]	12	491
Cc1c(C(=O)N(C)c2ccc(O)cc2)cc(-c2cc3c(cc2C(=O)N2Cc4ccccc4C[C@H]2C)CN(C(=O)OC2CCS(=O)(=O)C2)C3)n1C (stereo partly drawn) [Example 157, 1,1-Dioxo-1λ^6-thiolan-3-yl 5-{4-[(4-hydroxyphenyl)(methyl)carbamoyl]-1,5-dimethyl-1H-pyrrol-2-yl}-6-[(3R)-3-methyl-1,2,3,4-tetrahydroisoquinoline-2-carbonyl]-2,3-dihydro-1H-isoindole-2-carboxylate]	21	> 600

Further lines, with some results ahead:

IC50 [1] [nM]	SMILES	IC50 [2] [nM]
3.9	C[C@@H]1Cc2ccccc2CN1C(=O)c1cc2c(cc1-c1cc(C(=O)N(C)c3ccc(O)cc3)c3n1CCCC3)CCN(C(=O)Cc1ccc(OCCN(C)C)cc1)C2 [Example 154, 3-[2-(2-{4-[2-(Dimethylamino)ethoxy]phenyl}acetyl)-7-[(3R)-3-methyl-1,2,3,4-tetrahydroisoquinoline-2-carbonyl]-1,2,3,4-tetrahydroisoquinolin-6-yl]-N-(4-hydroxyphenyl)-N-methyl-5,6,7,8-tetrahydroindolizine-1-carboxamide]	5.9
2.5	Cc1c(C(=O)N(C)c2ccccc2)cc(-c2cc3c(cc2C(=O)N2Cc4ccccc4C[C@H]2CN2CCOCC2)CN(C(=O)Cc2ccccc2)CC3)n1C [Example 117, N,1,2-trimethyl-5-{7-[(3S)-3-(morpholin-4-ylmethyl)-1,2,3,4-tetrahydroisoquinoline-2-carbonyl]-2-(2-phenylacetyl)-1,2,3,4-tetrahydroisoquinolin-6-yl}-N-phenyl-1H-pyrrole-3-carboxamide]	39
3.1	Cc1c(C(=O)N(C)c2ccc(O)cc2)cc(-c2cc3c(cc2C(=O)N2Cc4ccccc4C[C@H]2CN2CCOCC2)CN(C(=O)CCc2ccccc2)CC3)n1C [Example 130, N-(4-Hydroxyphenyl)-N,1,2-trimethyl-5-{7-[(3S)-3-(morpholin-4-ylmethyl)-1,2,3,4-tetrahydroisoquinoline-2-carbonyl]-2-(3-phenylpropanoyl)-1,2,3,4-tetrahydroisoquinolin-6-yl}-1H-pyrrole-3-carboxamide]	36
4	Cc1ccc(CC(=O)N2CCc3cc(-c4cc(C(=O)N(C)c5ccc(O)cc5)c5n4CCCC5)c(C(=O)N4Cc5ccccc5C[C@H]4C)cc3C2)cc1 [Example 54, N-(4-Hydroxyphenyl)-N-methyl-3-{7-[(3R)-3-methyl-1,2,3,4-tetrahydroisoquinoline-2-carbonyl]-2-[2-(4-methylphenyl)acetyl]-1,2,3,4-tetrahydroisoquinolin-6-yl}-5,6,7,8-tetrahydroindolizine-1-carboxamide]	2.4
